Source: patent US20090209460A1, “COMPOSITIONS AND METHODS FOR TREATING OBESITY AND RELATED METABOLIC DISORDERS” (Amylin Pharmaceuticals, Inc., priority 2005, published 2009)
Residues, ends and D or L forms follow the SMILES beside them.

Tests used:
[1] = brush border membrane (BBM) stability assay; format: in vitro ADME, human; conditions: brush border membrane extract (e.g. kidney); percent compound remaining after a 5 hour incubation, human brush border membrane assay; read-out: hBBM
How it was run: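 Peptides digested up to 5 h at 37 °C with human brush border membrane extract (e.g. kidney). Timepoints quenched with 50% ACN, 1% FA, centrifuged, intact peptide quantified by selected-ion mass spectrometry. Expressed as percent stable.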

[2] = test system: mice with diet induced obesity (mouse DIO); test: cumulative food intake in mouse DIO after IP injection (FIGS. 6 and 7); format: in vivo; conditions: injected IP at t=0; measured at 30, 60, 120 and 180 min
Protocol: The activities of the following compounds are shown: A, [MimicB36] FN38; B, [His37] FN38; C,
[His35] FN38; D, [Phe33] FN38; E, [Val33] FN38; F, Des-(Ser6,Lys7,Thr8,Gln9) FN38; G, Des-Val16,Val17-FN38; H, [Phe31] FN38; I, Des-(Val16,Val17,Phe24,Ala25,Ser26,Gln27) FN38; J, Des-(Phe1,Leu2,Phe3,His4)FN38; and K, Des-(Phe24,Ala25,Ser26,Gln27)-FN38. […] Points represent mean±sd of n=4 cages (3 mice/cage). Peptide was injected IP at t=0. Food was introduced immediately after injection and amount consumed measured at t=30, 60, 120, and 180 min. In the figure, * p<0.05 vs. vehicle control; ANOVA, Dunnett's test.

NIH/Swiss mice = test: acute food intake assay, lean overnight-fasted NIH/Swiss mice, intraperitoneal injection; format: in vivo, mouse; conditions: mouse assay, dose of 200 mg/kg, measured at 60 minutes
How it was run: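 Overnight-fasted lean female NIH/Swiss mice (8-24 weeks, group housed) received vehicle or peptide intraperitoneally at time 0, then pre-weighed standard chow. Food consumed was weighed at 30, 60 and 120 min and expressed as % change versus control.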

## CC(C)C[C@H](NC(=O)[C@H](CCCCN)NC(=O)[C@H](CCC(N)=O)NC(=O)[C@@H](NC(=O)[C@H](CCCCN)NC(=O)[C@H](CO)NC(=O)[C@H](Cc1ccc(O)cc1)NC(=O)[C@H](Cc1c[nH]cn1)NC(=O)[C@H](Cc1ccccc1)NC(=O)[C@H](CC(C)C)NC(=O)[C@@H](N)Cc1ccccc1)[C@@H](C)O)C(=O)NCC(=O)N[C@@H](CCCCN)C(=O)N[C@@H](CO)C(=O)N[C@@H](CC(N)=O)C(=O)N[C@@H](CO)C(=O)N[C@@H](CCCNC(=N)N)C(=O)NCC(=O)N[C@@H](Cc1ccc(O)cc1)C(=O)N[C@@H](Cc1ccccc1)C(=O)N[C@@H](CC(C)C)C(=O)N[C@@H](Cc1ccccc1)C(=O)N[C@@H](CCCNC(=N)N)C(=O)N1CCC[C@H]1C(=O)N[C@@H](CCCNC(=N)N)C(=O)N[C@@H](CC(N)=O)C(N)=O [Des-(Val16-Gln27)FN38] (H-FLFHYSKTQKLGKSNSRGYFLFRPRN-NH2; N-terminus assumed)
[1]
  remaining at 5 h: 80%
[2]
  cumulative food intake in mouse DIO (FIGS. 6A, 6B, 7A, 7B): reduction of cumulative food intake
NIH/Swiss mice
  Food Intake Inhibition: −42%

## CC(C)C[C@H](NC(=O)[C@H](CCCCN)NC(=O)[C@H](CCC(N)=O)NC(=O)[C@@H](NC(=O)[C@H](CCCCN)NC(=O)[C@H](CO)NC(=O)[C@H](Cc1ccc(O)cc1)NC(=O)[C@H](Cc1c[nH]cn1)NC(=O)[C@H](Cc1ccccc1)NC(=O)[C@H](CC(C)C)NC(=O)[C@@H](N)Cc1ccccc1)[C@@H](C)O)C(=O)NCC(=O)N[C@@H](CCCCN)C(=O)N[C@@H](CO)C(=O)N[C@@H](CC(N)=O)C(=O)NCC(=O)N[C@@H](Cc1ccc(O)cc1)C(=O)N[C@@H](Cc1ccccc1)C(=O)N[C@@H](CC(C)C)C(=O)N[C@@H](Cc1ccccc1)C(=O)N[C@@H](CCCNC(=N)N)C(=O)N1CCC[C@H]1C(=O)N[C@@H](CCCNC(=N)N)C(=O)N[C@@H](CC(N)=O)C(N)=O [Des-(Val16-Arg29)FN38] (H-FLFHYSKTQKLGKSNGYFLFRPRN-NH2; N-terminus assumed)
[1]
  remaining at 5 h: 91%
[2]
  cumulative food intake in mouse DIO (FIGS. 6A, 6B, 7A, 7B): reduction of cumulative food intake
NIH/Swiss mice
  Food Intake Inhibition: −42%

## CC(C)C[C@H](NC(=O)[C@H](CCCCN)NC(=O)[C@H](CCC(N)=O)NC(=O)[C@@H](NC(=O)[C@H](CCCCN)NC(=O)[C@H](CO)NC(=O)[C@H](Cc1ccc(O)cc1)NC(=O)[C@H](Cc1c[nH]cn1)NC(=O)[C@H](Cc1ccccc1)NC(=O)[C@H](CC(C)C)NC(=O)[C@@H](N)Cc1ccccc1)[C@@H](C)O)C(=O)NCC(=O)N[C@@H](CCCCN)C(=O)N[C@@H](CO)C(=O)N[C@@H](CC(N)=O)C(=O)N[C@H](C(=O)N[C@H](C(=O)N[C@@H](CCC(=O)O)C(=O)N[C@@H](CCC(=O)O)C(=O)N[C@@H](CC(C)C)C(=O)N[C@@H](CCC(N)=O)C(=O)N[C@@H](CO)C(=O)N1CCC[C@H]1C(=O)N[C@@H](Cc1ccccc1)C(=O)N[C@@H](C)C(=O)N[C@@H](CO)C(=O)N[C@@H](CCC(N)=O)C(=O)N[C@@H](CO)C(=O)N[C@@H](CCCNC(=N)N)C(=O)NCC(=O)N[C@@H](Cc1ccc(O)cc1)C(=O)N[C@@H](Cc1ccccc1)C(=O)N[C@@H](Cc1ccccc1)C(=O)N[C@@H](Cc1ccccc1)C(=O)N[C@@H](CCCNC(=N)N)C(=O)N1CCC[C@H]1C(=O)N[C@@H](CCCNC(=N)N)C(=O)N[C@@H](CC(N)=O)C(N)=O)C(C)C)C(C)C [[Phe33]FN38] (H-FLFHYSKTQKLGKSNVVEELQSPFASQSRGYFFFRPRN-NH2; N-terminus assumed)
[1]
  remaining at 5 h: 67%
[2]
  cumulative food intake in mouse DIO (FIGS. 6A, 6B, 7A, 7B): either not active or weakly active
NIH/Swiss mice
  Food Intake Inhibition: −32%

## CC(C)C[C@H](NC(=O)[C@H](CCCCN)NC(=O)[C@H](CCC(N)=O)NC(=O)[C@@H](NC(=O)[C@H](CCCCN)NC(=O)[C@H](CO)NC(=O)[C@H](Cc1ccc(O)cc1)NC(=O)[C@H](Cc1c[nH]cn1)NC(=O)[C@H](Cc1ccccc1)NC(=O)[C@H](CC(C)C)NC(=O)[C@@H](N)Cc1ccccc1)[C@@H](C)O)C(=O)NCC(=O)N[C@@H](CCCCN)C(=O)N[C@@H](CO)C(=O)N[C@@H](CC(N)=O)C(=O)N[C@@H](CCC(=O)O)C(=O)N[C@@H](CCC(=O)O)C(=O)N[C@@H](CC(C)C)C(=O)N[C@@H](CCC(N)=O)C(=O)N[C@@H](CO)C(=O)N1CCC[C@H]1C(=O)N[C@@H](CO)C(=O)N[C@@H](CCCNC(=N)N)C(=O)NCC(=O)N[C@@H](Cc1ccc(O)cc1)C(=O)N[C@@H](Cc1ccccc1)C(=O)N[C@@H](CC(C)C)C(=O)N[C@@H](Cc1ccccc1)C(=O)N[C@@H](CCCCN)C(=O)N1CCC[C@H]1C(=O)N[C@@H](CCCNC(=N)N)C(=O)N[C@@H](CC(N)=O)C(N)=O [Des-(Val16,Val17,Phe24-Gln27)[K35]FN38] (H-FLFHYSKTQKLGKSNEELQSPSRGYFLFKPRN-NH2; N-terminus assumed)
[1]
  remaining at 5 h: 76%
[2]
  cumulative food intake in mouse DIO (FIGS. 6A, 6B, 7A, 7B): reduction of cumulative food intake
NIH/Swiss mice
  Food Intake Inhibition: −54%

## CC(C)C[C@H](NC(=O)[C@H](CCCCN)NC(=O)[C@H](CCC(N)=O)NC(=O)[C@@H](NC(=O)[C@H](CCCCN)NC(=O)[C@H](CO)NC(=O)[C@H](Cc1ccc(O)cc1)NC(=O)[C@H](Cc1c[nH]cn1)NC(=O)[C@H](Cc1ccccc1)NC(=O)[C@H](CC(C)C)NC(=O)[C@@H](N)Cc1ccccc1)[C@@H](C)O)C(=O)NCC(=O)N[C@@H](CCCCN)C(=O)N[C@@H](CO)C(=O)N[C@@H](CC(N)=O)C(=O)N[C@H](C(=O)N[C@H](C(=O)N[C@@H](CCC(=O)O)C(=O)N[C@@H](CCC(=O)O)C(=O)N[C@@H](CC(C)C)C(=O)N[C@@H](CCC(N)=O)C(=O)N[C@@H](CO)C(=O)N1CCC[C@H]1C(=O)N[C@@H](Cc1ccccc1)C(=O)N[C@@H](C)C(=O)N[C@@H](CO)C(=O)N[C@@H](CCC(N)=O)C(=O)N[C@@H](CO)C(=O)N[C@@H](CCCNC(=N)N)C(=O)NCC(=O)N[C@@H](Cc1ccc(O)cc1)C(=O)N[C@@H](Cc1ccccc1)C(=O)N[C@@H](CC(C)C)C(=O)N[C@@H](Cc1ccccc1)C(=O)N[C@@H](Cc1c[nH]cn1)C(=O)N1CCC[C@H]1C(=O)N[C@@H](CCCNC(=N)N)C(=O)N[C@@H](CC(N)=O)C(N)=O)C(C)C)C(C)C [Compound C] (H-FLFHYSKTQKLGKSNVVEELQSPFASQSRGYFLFHPRN-NH2; N-terminus assumed)
[2]
  cumulative food intake in mouse DIO (FIGS. 6A, 6B, 7A, 7B): either not active or weakly active

## CC(C)C[C@H](NC(=O)[C@H](Cc1ccccc1)NC(=O)[C@H](Cc1ccc(O)cc1)NC(=O)CNC(=O)[C@H](CCCNC(=N)N)NC(=O)[C@H](CO)NC(=O)[C@H](CCC(N)=O)NC(=O)[C@H](CO)NC(=O)[C@H](C)NC(=O)[C@H](Cc1ccccc1)NC(=O)[C@H](CO)NC(=O)[C@H](Cc1ccc(O)cc1)NC(=O)[C@H](Cc1c[nH]cn1)NC(=O)[C@H](Cc1ccccc1)NC(=O)[C@H](CC(C)C)NC(=O)[C@@H](N)Cc1ccccc1)C(=O)N[C@@H](Cc1ccccc1)C(=O)N[C@@H](CCCNC(=N)N)C(=O)N1CCC[C@H]1C(=O)N[C@@H](CCCNC(=N)N)C(=O)N[C@@H](CC(N)=O)C(N)=O [Des-(Lys7-Pro23)FN38] (H-FLFHYSFASQSRGYFLFRPRN-NH2; N-terminus assumed)
[1]
  remaining at 5 h: 95%
[2]
  cumulative food intake in mouse DIO (FIGS. 6A, 6B, 7A, 7B): reduction of cumulative food intake
NIH/Swiss mice
  Food Intake Inhibition: −26%
